Target: NS3 (Hepatitis C virus) (UniProt A3EZJ3)
Test: Inhibitory activity against hepatitis C virus helicase at 25 ug/mL
Conditions: Hepacivirus hominis

Sequence of NS3 (Hepatitis C virus) (A3EZJ3 as listed by the source): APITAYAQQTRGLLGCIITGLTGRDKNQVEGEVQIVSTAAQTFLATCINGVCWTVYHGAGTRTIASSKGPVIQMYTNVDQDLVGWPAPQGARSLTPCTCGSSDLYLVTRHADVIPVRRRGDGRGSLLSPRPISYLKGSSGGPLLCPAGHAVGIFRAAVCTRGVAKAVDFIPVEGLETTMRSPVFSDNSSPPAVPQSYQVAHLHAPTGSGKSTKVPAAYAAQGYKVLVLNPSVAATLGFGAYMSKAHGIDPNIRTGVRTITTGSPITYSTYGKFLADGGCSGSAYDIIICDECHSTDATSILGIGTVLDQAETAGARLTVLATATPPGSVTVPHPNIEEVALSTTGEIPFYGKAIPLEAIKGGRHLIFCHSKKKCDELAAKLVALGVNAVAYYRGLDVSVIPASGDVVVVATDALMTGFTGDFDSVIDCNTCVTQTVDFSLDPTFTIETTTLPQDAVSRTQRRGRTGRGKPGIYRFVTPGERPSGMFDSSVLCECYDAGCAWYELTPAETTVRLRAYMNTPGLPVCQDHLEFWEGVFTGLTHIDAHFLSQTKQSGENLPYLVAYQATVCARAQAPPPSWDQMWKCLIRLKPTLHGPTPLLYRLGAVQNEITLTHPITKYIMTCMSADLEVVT

For O=C(CCCCCCCC(=O)Nc1nc2ccccc2[nH]1)Nc1nc2ccccc2[nH]1, which inhibition is on record?
Its inhibition is 6%.

Which inhibition does the source give for O=C(CCC(=O)Nc1nc2ccccc2[nH]1)Nc1nc2ccccc2[nH]1 here?
Its inhibition is 6%.

For O=C(NCCCCCCNC(=O)Nc1ccc(-c2nc3ccccc3[nH]2)cc1)Nc1ccc(-c2nc3ccccc3[nH]2)cc1, which inhibition is on record?
The inhibition was 28%.

For O=C(CCCCC(=O)Nc1nc2ccccc2[nH]1)Nc1nc2ccccc2[nH]1, which inhibition is on record?
The inhibition was 6%.

Which inhibition does the source give for O=C(CCCCCCC(=O)Nc1nc2ccccc2[nH]1)Nc1nc2ccccc2[nH]1 here?
Its inhibition is 6%.

For O=C(NCCCCNC(=O)Nc1ccc(-c2nc3ccccc3[nH]2)cc1)Nc1ccc(-c2nc3ccccc3[nH]2)cc1, which inhibition is on record?
Its inhibition is 20%.

Which inhibition does the source give for O=C(CCCCC(=O)Nc1nccs1)Nc1nccs1 here?
The inhibition was 10%.

O=C(CCCCCCC(=O)Nc1ccc(-c2nc3ccccc3[nH]2)cc1)Nc1ccc(-c2nc3ccccc3[nH]2)cc1 was tested. Which inhibition did it give?
The inhibition was 75%.

With O=C(/C=C/C(=O)Nc1ccc(-c2nc3ccccc3[nH]2)cc1)Nc1ccc(-c2nc3ccccc3[nH]2)cc1 as the compound, how does the inhibition read?
Its inhibition is 75%.

O=C(CCCCC(=O)Nc1ccc(-c2nc3ccccc3[nH]2)cc1)Nc1ccc(-c2nc3ccccc3[nH]2)cc1 was tested. Which inhibition did it give?
Its inhibition is 75%.

With O=C(Nc1ccc(-c2nc3ccccc3[nH]2)cc1)c1ccc(C(=O)Nc2ccc(-c3nc4ccccc4[nH]3)cc2)cc1 as the compound, how does the inhibition read?
The inhibition was 75%.

For Cc1ccc2nc(-c3ccc(NC(=O)CCC(=O)Nc4ccc(-c5nc6ccc(C)cc6s5)cc4)cc3)sc2c1, which inhibition is on record?
The inhibition was 14%.

— ChEMBL document CHEMBL1134109, “Biological evaluation of hepatitis C virus helicase inhibitors” (Bioorg Med Chem Lett, 2001)
